Test system: IL-1a-induced PGE2 in neonatal human dermal fibroblasts
Assay: Inhibition of IL-1a-induced PGE2 production in fibroblasts (PGE2 enzyme immunoassay)
Format: cell-based
Procedure: Neonatal human dermal fibroblasts (passage 5-9) were seeded at a density of 7500 cells per well in 96-well tissue culture treated plates (Corning-Costar, Corning, N.Y.). The medium used was Dulbecco's Modified Eagle's Medium (DMEM), high-glucose (Gibco/Life Technologies, Gaithersburg, Md.) supplemented with 2 mM L-glutamine, 10% fetal bovine serum, and antibiotic and anti mycotic solutions (all also Life Technologies). After 48 hours, each well was rinsed twice with 200 μl serum-free DMEM and the cells dosed with 200 μl in DMEM+L-glutamine containing IL-1α at 1 ng/ml +/− active. […]
Enzyme immunoassay was performed using a commercial PGE2 kit (Amersham, Buckinghamshire, England). […] The assay is based on the competition between unlabelled PGE2 (standard or sample) and a fixed quantity of peroxidase labelled PGE2 for a limited amount of the well-bound PGE2-specific antibody. […] The Dynatech MR7000 microplate spectrophotometer (Dynatech, Chantilly, Va.) was used to quantitate color in the wells by reading absorbance at 450 nm. […]
The antiinflammatory potential of the test compounds is assessed by the ability of the compound to inhibit IL-1a-induced PGE2 and is expressed as the ratio of PGE2 produced by the cells treated with the test compound +IL-1a to PGE2 produced by the cells treated with IL-1a alone. […] Statistical significance was determined using the student's t-test.

## Chicoric acid
Table 1b, concentration 0.001%
  Ratio of PGE2 with echinacea + IL-1a/IL-1a: 0.02
At 0.001%
  Effectiveness in the PGE2 test (in words): effective
